Literature values in patent US10342765B2, “Therapeutic compositions comprising monoterpenes” (priority 2009, dated 2019).
Entries after “also recorded” stand apart in the source; their conditions may differ.

Assays:
malignant gliomas = conditions: patients with malignant gliomas; nasal inhalation
[1] = nasal inhalation; nasal inhaler four times daily
[2] = test system: systemic malignancies including breast, lung, pancreatic, melanomas

C=C(C)[C@@H]1CC=C(CO)CC1 [POH, perillyl alcohol]
tumor size (radiographic) (malignant gliomas): radiographic reduction in tumor size
tolerability in patients [1]: safely tolerated; also recorded: well tolerated, with minimal side effects
effectiveness against systemic malignancies [2]: effective
